Measured values published in ChEMBL document CHEMBL1157539, “Thousands of chemical starting points for antimalarial lead identification” (Nature, 2010).

system: Plasmodium falciparum; assay: GSK_TCMDC: Inhibition of Plasmodium falciparum 3D7 in whole erythrocytes, using parasite LDH activity as an index of growth.; assay type: functional, organism-based; settings: Plasmodium falciparum, 3D7

| SMILES | XC50 [nM] |
| --- | --- |
| COc1ccc(CN(C)CCCc2ccc(NC(=O)Cc3ccc4nc(-c5ccccc5)ccc4c3)cc2)cc1OC | 534 |
| O=C(Nc1cccc(-c2cccc(F)c2)c1)C1CCN(Cc2ccc(O)cc2)CC1 | 1730 |
| CNc1ccc(CNCc2cccc(-c3ccc(-c4nc5cccc(C)c5[nH]4)s3)c2)cc1 | 987 |
| CCNc1cc(C(=O)N[C@@H](Cc2ccc(F)c(F)c2)[C@H](O)CNC2CCCCC2)cc(N2CCCCS2(=O)=O)c1 | 117 |
| O=C(Nc1ccc(CN2CCOCC2)cc1)c1ccc(-c2ccc(Cl)cc2)o1 | 862 |
| C(=N\Nc1nccc2sc(-c3cccnc3)cc12)/c1cccnc1 | 423 |
| COc1cc([N+](=O)[O-])ccc1NC(=O)c1cc(Cl)ccc1O | 1140 |
| CCOc1ccc(-c2nonc2NC(=O)c2ccccc2Cl)cc1OCC | 742 |
| O=C(Nc1cccc(CN2CCCN(Cc3ccc(O)cc3)CC2)c1)c1ccc2ccccc2n1 | 938 |
| Cn1nccc1C(=O)NCCNCc1cccc(-c2cccc(-c3nc4cc(F)ccc4[nH]3)c2)c1 | 261 |
| O=C(N[C@H]1CCN(Cc2ccc(OCCN3CCNCC3)c3ccccc23)C1)c1ccc(Cl)c(Cl)c1 | 748 |
| C=CCn1c(SCC(=O)Nc2cc(Cl)ccc2Cl)nc2sc(C)cc2c1=O | 71.6 |
| Oc1ccc(CCNCc2ccc(OCc3ccccc3)c(OCc3ccccc3)c2)cc1 | 1510 |
| CNCCNCc1ccc(-c2ccc(-c3nc4cccc(C)c4[nH]3)cc2)cc1 | 670 |
| Cc1nc2c(=O)sc3ccccc3c2n1Cc1ccccc1 | 881 |
| O=C(/C=C/c1ccc(Cl)c(Cl)c1)NCCCCCN1CCCN(C(=O)Nc2cccc(F)c2)CC1 | 757 |
| OC1(c2ccccc2)CCN(Cc2cccc(-c3c[nH]c4nc(NC5CCCC5)ncc34)c2)C1 (centres undefined) | 914 |
| CO/C(=C\C=C\c1cc2cc(Cl)c(Cl)cc2[nH]1)C(=O)NCCCN1CCN(c2cccc(CCCO)c2)CC1 | 1030 |
| O=C(NCC1CCC(C(=O)O)CC1)c1ccc(/C=C/C(=O)N2CCc3ccccc3C2c2ccc3c(c2)OCO3)cc1 (centres undefined) | 892 |
| CCCNCc1ccc(-c2ccc(CN(CCOC)C(=O)COc3ccccc3Cl)cc2)nc1 | 912 |
| O=C(Nc1cccc(F)c1)NC1CCN(c2ccnc3cc(Cl)ccc23)CC1 | 609 |
| O=[N+]([O-])c1ccc(Oc2c(Cl)cc(S(=O)(=O)N3CCC(CN4CCC(c5c[nH]c6ccccc56)CC4)CC3)cc2Cl)c(Cl)c1 | 998 |
| Cc1ccc(Nc2nnc(SCC(=O)Nc3ccc(CN4CCCC4)cc3)s2)cc1 | 1210 |

| SMILES | XC50 [nM] |
| --- | --- |
| CCCCC1=CC2C(=O)C(C(=O)OC)=CN=C2C=C1OCc1ccccc1 (centres undefined) | 42.2 |
| CC(=O)N(C)c1ccc(C(=O)Nc2cccc(-c3cccc(-c4nc5cccc(C)c5[nH]4)c3)c2)cc1 | 620 |
| CCCCCCCNC(=O)NCC1CCCN(CCCCCNC(=O)/C=C/c2ccc(Cl)c(Cl)c2)C1 (centres undefined) | 1040 |
| O=C(Cc1ccc(-n2cnnn2)cc1)N(Cc1cncn1Cc1cccc(C(F)(F)F)c1)CC1CC1 | 962 |
| COc1ccc2nc(Nc3nc(-c4ccccn4)cs3)sc2c1 | 1120 |
| FC(F)(F)c1ccc2[nH]c(-c3ccc(-c4ccc(CN5CCN(c6ccncc6)CC5)cc4)s3)nc2c1 | 153 |
| Cc1ccc(C(=O)Nc2ccc(Cl)c(N3CCN(CCc4ccccc4)CC3)c2)cc1 | 926 |
| NC1=NC(c2ccccc2)(c2ccccc2)C(=O)N1CCCCc1ccccc1 | 760 |
| COc1ccc2ncc(C)c(CCN3CCC(NCc4ccc5c(n4)NC(=O)CS5)CC3)c2c1 | 546 |
| CC[C@H]1CN2CC[C@H]1C[C@H]2[C@H](O)c1cc(N2CCCC2)nc2ccc(OC)cc12 | 44.8 |
| CCCCCCN1CCC(NCc2cccc3ccccc23)CC1 | 811 |
| CNc1ccc(CNCc2cccc(-c3ccc(-c4nc5ccccc5[nH]4)s3)c2)cc1 | 734 |
| Cn1c(Nc2nnc(C3CC3)s2)nc2cc(Nc3ccnc(Nc4cccc(CS(C)(=O)=O)c4)n3)ccc21 | 681 |
| Cc1cccc(Nc2nc(N[C@@H]3CCCNC3)nc3cc[nH]c(=O)c23)c1 | 683 |
| COc1ccc(NC(=O)Nc2cccc(-c3cccc(-c4nc5cccc(C)c5[nH]4)c3)c2)cc1 | 400 |
| Cc1cc(N[C@@H](CC(C)C)C(=O)NCc2cccc(F)c2)nc(NCC2CCCCC2)n1 | 834 |
| COc1ccc2nccc(N3CCC(NCCNCc4ccc5c(n4)NC(=O)CO5)C3)c2n1 (centres undefined) | 862 |
| CC(Nc1ccc2c(c1)OCCO2)C(=O)Nc1cc(C(F)(F)F)ccc1N1CCOCC1 (centres undefined) | 408 |
| Cc1[nH]c(C)c(-c2ccc(-c3cccc(Cl)c3)nc2)c(=O)c1Cl | 186 |
| Cc1ccc(-c2cc(C(=O)Nc3ccc(S(=O)(=O)N(C)Cc4ccccc4)cc3)[nH]n2)c(O)c1 | 845 |
| O=C(/C=C/c1ccc(Cl)c(Cl)c1)NCCCCCN1CCCN(C(=O)Nc2ccc([N+](=O)[O-])cc2)CC1 | 615 |
| COc1ccc(-c2ccc(NC(=O)c3ccc(F)cc3)cc2)cc1CNC(C)C | 758 |
| COc1cc(NC(=O)c2ccc(-c3ccccc3)cc2)ccc1OCCCN1CCC(c2ccccc2)CC1 | 752 |

| SMILES | XC50 [nM] |
| --- | --- |
| Cc1cc(C(F)(F)F)n2nc(C(=O)N(C)Cc3cncn3Cc3ccc(F)cc3)cc2n1 | 832 |
| COc1ccc(CNCC2CCC(CNCCc3ccccc3)CC2)cc1Cl (centres undefined) | 789 |
| COc1cccc(C(=O)N2CCOC(CCN3CCC(c4ccccc4)CC3)(c3ccc(Cl)c(Cl)c3)C2)c1 (centres undefined) | 505 |
| Oc1ccc(CCCNc2nc(NCc3cccc4ccccc34)nc(NC3CCNCC3)n2)cc1 | 1130 |
| c1ccc(CCNc2ncnc3c2[nH]c2ccccc23)cc1 | 601 |
| COc1cccc(-c2cccc(-c3ccc(NC(=O)c4ccc([N+](=O)[O-])o4)cc3)n2)c1 | 515 |
| O=C(c1cccc(-c2noc(C(F)(F)F)n2)c1)N1CCN(C(=O)c2ccc3cc[nH]c3c2)CC1 | 107 |
| CCCCCCN1CCCN(Cc2ccc(C(=O)Nc3ccc(F)c(F)c3)cc2)CC1 | 612 |
| Cc1nc(-c2cccc(C(=O)N(Cc3cncn3Cc3cccc(C(F)(F)F)c3)CC3CC3)c2)cs1 | 941 |
| O=C(N[C@@H](CC1CCCCC1)C(=O)NC1CCCCC1)c1ccc(O)c(-c2cccc(C(F)(F)F)c2)c1 | 747 |
| O=C(Nc1cccc([N+](=O)[O-])c1)Nc1cccc(C(F)(F)F)c1 | 767 |
| CN1CCC(C(=O)Nc2cccc(-c3ccc(-c4nc5cc(C(F)(F)F)ccc5[nH]4)cc3)c2)CC1 | 675 |
| CCCN(CC1CC1)c1ncc(-c2cccc(CNCc3ccccc3O)c2)cn1 | 700 |
| COc1ccc(-c2ccc(S(=O)(=O)Nc3cc4c(cc3OC(C)C)CCNCC4)cc2)cc1 | 969 |
| CN(Cc1ccccc1)C(=O)c1nn(CCCN2CCC(N3CCCC3)CC2)cc1-c1ccc(Cl)c(Cl)c1 | 767 |
| CCCCCN1C(=O)N(c2ccc(Cl)c(Cl)c2)C(N(O)C(=O)Nc2ccc(Cl)c(Cl)c2)C1(C)C (centres undefined) | 545 |
| CCn1c(-c2nonc2N)nc2c(-c3cccc(Cl)c3)ncc(OCCCNCCc3c[nH]cn3)c21 | 983 |
| CCc1cc(OC)ccc1C1CCN(CCCCNC(=O)c2ccc(NC(=O)c3ccc(Cl)cc3)cc2)CC1 | 1070 |
| CCN1CCC2(c3cccc(OC)c3)Cc3nc4ccccc4c(-c4ccccc4)c3CC2C1 (centres undefined) | 348 |
| O=[N+]([O-])c1ccc2nccnc2c1 | 1070 |
| CCCCCCCN(CCCCCCC)CCNc1cc(C)nc2ccccc12 | 339 |
| COc1ccc2nccc(NC(=O)C3(O)CCC(NCc4ncc5c(c4Cl)OCCO5)CC3)c2n1 (centres undefined) | 254 |
| COC(=O)c1cccc(CNCc2ccc(-c3ccc(-c4nc5cccc(C)c5[nH]4)s3)cc2)c1 | 402 |
